Data from US20240158368A1, “Pyrrolidine Main Protease Inhibitors as Antiviral Agents” (AbbVie Inc., priority 2022, published 2024).

Assays:
SARS-CoV-2 Mpro = SARS-CoV-2 Mpro (Severe acute respiratory syndrome coronavirus 2 (2019-nCoV) (SARS-CoV-2), UniProt P0DTD1); format: biochemical
MERS Mpro = MERS Mpro (Middle East respiratory syndrome-related coronavirus (isolate United Kingdom/H123990006/2012) (MERS-CoV) (Betacoronavirus England 1), UniProt K9N7C7); assay: biochemical
OC43 Mpro = OC43 Mpro (Human coronavirus OC43 (HCoV-OC43), UniProt P0C6X6); format: biochemical
229E Mpro = 229E Mpro (Human coronavirus 229E (HCoV-229E), UniProt P0C6X1); format: biochemical
in vitro [1] = details: PAMPA
in vitro [2] = details: rat, pH 7.4
in vitro [3] = details: human, pH 7.4
[4] = system: SARS-CoV-2 (strain USA-WA1/2020); assay: microbe, parasite or virus in culture; format: cell-based; details: Severe acute respiratory syndrome coronavirus 2; HeLa-ACE2 cells; read-out: Antiviral CoV-2 EC50

Sequence of OC43 Mpro (P0C6X6 3247-3549 limits assumed): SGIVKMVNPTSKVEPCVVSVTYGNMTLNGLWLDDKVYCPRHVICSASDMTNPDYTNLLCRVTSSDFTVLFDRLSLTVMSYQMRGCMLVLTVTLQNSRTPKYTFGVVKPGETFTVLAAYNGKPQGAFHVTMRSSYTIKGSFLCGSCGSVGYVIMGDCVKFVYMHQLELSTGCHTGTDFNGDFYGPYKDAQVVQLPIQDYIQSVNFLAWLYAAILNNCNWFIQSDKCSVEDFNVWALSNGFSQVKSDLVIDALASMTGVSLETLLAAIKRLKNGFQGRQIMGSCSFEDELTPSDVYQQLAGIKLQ
Sequence of MERS Mpro (K9N7C7 3248-3553 limits assumed): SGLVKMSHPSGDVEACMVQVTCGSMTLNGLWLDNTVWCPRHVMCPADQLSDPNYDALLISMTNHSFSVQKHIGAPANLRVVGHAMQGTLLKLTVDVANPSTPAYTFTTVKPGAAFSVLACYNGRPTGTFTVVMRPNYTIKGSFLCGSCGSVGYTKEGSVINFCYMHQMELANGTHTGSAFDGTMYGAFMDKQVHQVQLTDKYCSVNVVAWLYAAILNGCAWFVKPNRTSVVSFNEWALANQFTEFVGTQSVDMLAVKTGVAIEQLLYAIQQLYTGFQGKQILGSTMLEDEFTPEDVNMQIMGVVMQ
Sequence of 229E Mpro (P0C6X1 2966-3267 limits assumed): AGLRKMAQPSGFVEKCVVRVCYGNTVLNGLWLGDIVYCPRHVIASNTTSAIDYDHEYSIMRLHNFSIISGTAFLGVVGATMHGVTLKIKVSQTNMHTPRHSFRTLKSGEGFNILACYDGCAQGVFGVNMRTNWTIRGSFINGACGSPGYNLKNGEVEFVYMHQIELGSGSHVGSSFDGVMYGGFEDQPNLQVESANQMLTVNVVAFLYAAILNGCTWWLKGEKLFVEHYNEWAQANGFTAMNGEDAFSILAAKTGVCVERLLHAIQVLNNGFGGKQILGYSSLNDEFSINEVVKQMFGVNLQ

| SMILES | EC50 (SARS-CoV-2 Mpro) | EC50 (MERS Mpro) | EC50 (OC43 Mpro) | EC50 (229E Mpro) | Papp (in vitro [1]) | CLint scaled (in vitro [2]; microsomes) | CLint scaled (in vitro [3]; microsomes) | EC50 [4] | CLint scaled (in vitro [2]) | CLint scaled (in vitro [3]) |
| --- | --- | --- | --- | --- | --- | --- | --- | --- | --- | --- |
| Cc1cc(C(=O)N[C@@H]2CCN(c3c(C(=O)NCC(C)C)cc(C#N)cc3C(F)(F)F)C2)cc(=O)[nH]1 [Compound 29] | 13.9 nM | 8.85 nM | 378 nM | 682 nM | 3.51 ×10⁻⁶ cm/s | < 51.7 mL/min/kg | < 30 mL/min/kg |  |  |  |
| N#Cc1cc(C(=O)N2CCOCC2)c(N2CC[C@@H](NC(=O)c3cc(=O)[nH]c4c(F)cccc34)C2)c(C2CC2)c1 [Compound 40] | 0.42 nM | 0.89 nM | 0.55 nM | 2.47 nM | 5.15 ×10⁻⁶ cm/s | 220 mL/min/kg | < 28.3 mL/min/kg | 5 nM |  |  |
| N#Cc1cc(C(=O)N2CC3CC(C2)O3)c(N2CC[C@@H](NC(=O)c3cc(=O)[nH]c4c(F)cccc34)C2)c(C(F)(F)F)c1 [Compound 17] |  | 1.27 nM |  |  | 4.6 ×10⁻⁶ cm/s |  |  |  | < 48.3 mL/min/kg | < 28.3 mL/min/kg |
| N#Cc1cc(C(=O)N2CCC(F)(F)C2)c(N2CC[C@@H](NC(=O)c3cc(=O)[nH]c4c(F)cccc34)C2)c(C(F)(F)F)c1 [Compound 21] |  | 1.3 nM |  |  | 8.89 ×10⁻⁶ cm/s |  |  |  | 128 mL/min/kg | 55 mL/min/kg |
| N#Cc1cc(C(=O)N2CCOCC2)c(N2CC[C@H](NC(=O)c3cc(=O)[nH]c4c(F)cccc34)C2)c(C(F)(F)F)c1 [Compound 4] |  |  |  |  | 5.55 ×10⁻⁶ cm/s | < 41.7 mL/min/kg | < 25 mL/min/kg |  |  |  |
| CCS(=O)(=O)N1CCN(C(=O)c2cc(C#N)cc(C(F)(F)F)c2N2CC[C@@H](NC(=O)c3cc(=O)[nH]c4c(F)cccc34)C2)CC1 [Compound 25] |  | 1.41 nM |  |  | 2.06 ×10⁻⁶ cm/s |  |  |  |  |  |
| Cc1[nH]c(=O)c(F)c(C(=O)N[C@@H]2CCN(c3c(C(=O)N4CCOCC4)cc(C#N)cc3C(F)(F)F)C2)c1Cl [Compound 11] | 0.73 nM | 1.63 nM | 10.3 nM | 5.31 nM | 0.49 ×10⁻⁶ cm/s | < 61.7 mL/min/kg |  |  |  |  |
| COCCN(C)C(=O)c1cc(Br)cc(C(F)(F)F)c1N1CC[C@@H](NC(=O)c2cc(=O)[nH]c3c(F)cccc23)C1 [Compound 72] | 1.11 nM | 2.83 nM | 19.2 nM | 39 nM | 19.6 ×10⁻⁶ cm/s | 1280 mL/min/kg | 562 mL/min/kg |  |  |  |
| Cc1cc(C(=O)N[C@@H]2CCN(c3c(C(=O)N4CCOCC4)cc(C#N)cc3C(F)(F)F)C2)c(F)c(=O)[nH]1 [Compound 10] | 0.54 nM | 1.5 nM | 12 nM | 7.63 nM | 0.7 ×10⁻⁶ cm/s | < 50 mL/min/kg | < 30 mL/min/kg | 589 nM |  |  |
| N#Cc1cc(C(=O)N2CCCC2)c(N2CC[C@@H](NC(=O)c3cc(=O)[nH]c4c(F)cccc34)C2)c(C(F)(F)F)c1 [Compound 20] |  | 1.68 nM |  |  | 13.8 ×10⁻⁶ cm/s |  |  |  | 142 mL/min/kg | < 36.7 mL/min/kg |
| N#Cc1cc(C(=O)N2CCOCC2)c(N2C[C@H](NC(=O)c3cc(=O)[nH]c4c(F)cc(F)cc34)CC2=O)c(C(F)(F)F)c1 [Compound 33] | 0.92 nM | 2.49 nM | 171 nM | 38.5 nM | 1.12 ×10⁻⁶ cm/s | < 56.7 mL/min/kg | < 35 mL/min/kg | 174 nM |  |  |
| O=C(N[C@@H]1CCN(c2c(C(=O)N3CCCC3)cc(Br)cc2C(F)(F)F)C1)c1cc(=O)[nH]c2c(F)cccc12 [Compound 68] | 0.6 nM | 1.83 nM | 3.55 nM | 10.4 nM | 14.7 ×10⁻⁶ cm/s | 1120 mL/min/kg | 317 mL/min/kg |  |  |  |
| O=C(N[C@@H]1CCN(c2c(C(=O)N3CCC(F)(F)C3)cc(Br)cc2C(F)(F)F)C1)c1cc(=O)[nH]c2c(F)cccc12 [Compound 69] | 0.67 nM | 1.76 nM | 4.92 nM | 15.5 nM | 14.5 ×10⁻⁶ cm/s | 1040 mL/min/kg | 303 mL/min/kg |  |  |  |
| O=C(N[C@@H]1CCN(c2c(C(=O)N3CCOCC3)cc(Br)cc2C(F)(F)F)C1)c1c(F)c(=O)[nH]c2ccccc12 [Compound 53] | 0.6 nM | 1.86 nM | 0.71 nM | 1.98 nM | 8.9 ×10⁻⁶ cm/s | 615 mL/min/kg | 217 mL/min/kg |  |  |  |
| N#Cc1cc(C(=O)N2CCNC(=O)C2)c(N2CC[C@@H](NC(=O)c3cc(=O)[nH]c4c(F)cccc34)C2)c(C(F)(F)F)c1 [Compound 27] | 0.63 nM | 1.36 nM | 8.72 nM |  | 0.11 ×10⁻⁶ cm/s | < 58.3 mL/min/kg | < 35 mL/min/kg | 2800 nM |  |  |
| Cc1cc(C(=O)N[C@@H]2CCN(c3c(C(=O)N4CCOCC4)cc(C#N)cc3C(F)F)C2)c(F)c(=O)[nH]1 [Compound 12] | 1.02 nM | 2.65 nM | 23.4 nM | 90.4 nM | 0.23 ×10⁻⁶ cm/s | < 41.7 mL/min/kg | < 25 mL/min/kg |  |  |  |

| SMILES | EC50 (SARS-CoV-2 Mpro) | EC50 (MERS Mpro) | EC50 (OC43 Mpro) | EC50 (229E Mpro) | Papp (in vitro [1]) | CLint scaled (in vitro [2]; microsomes) | CLint scaled (in vitro [3]; microsomes) | EC50 [4] | CLint scaled (in vitro [2]) | CLint scaled (in vitro [3]) |
| --- | --- | --- | --- | --- | --- | --- | --- | --- | --- | --- |
| O=C(N[C@@H]1CCN(c2c(C(=O)N3CCCCC3)cc(Br)cc2C(F)(F)F)C1)c1cc(=O)[nH]c2c(F)cccc12 [Compound 64] | 0.53 nM | 1.38 nM | 2.87 nM | 9.61 nM | 14.9 ×10⁻⁶ cm/s | 1070 mL/min/kg | 272 mL/min/kg |  |  |  |
| O=C(N[C@@H]1CCN(c2c(OC(F)(F)F)cc(Cl)cc2C(=O)N2CCOCC2)C1)c1cc(=O)[nH]c2c(F)cccc12 [Compound 44] | 0.53 nM | 1.07 nM | 1.98 nM | 3.18 nM | 15.3 ×10⁻⁶ cm/s | 292 mL/min/kg | 41.7 mL/min/kg |  |  |  |
| O=C(N[C@@H]1CC(=O)N(c2c(C(=O)N3CCOCC3)cc(Br)cc2C(F)(F)F)C1)c1c(F)c(=O)[nH]c2c(F)c(F)ccc12 [Compound 77] | 1.21 nM | 1.69 nM | 28.3 nM | 124 nM | 3.46 ×10⁻⁶ cm/s | < 65 mL/min/kg | < 38.3 mL/min/kg |  |  |  |
| O=C(N[C@@H]1CCN(c2c(C(=O)N3CCOCC3)cc(Br)cc2C(F)(F)F)C1)c1cc(=O)[nH]c2c(F)ccc(F)c12 [Compound 52] | 0.43 nM | 1.03 nM | 0.84 nM | 3.58 nM | 12.6 ×10⁻⁶ cm/s | 452 mL/min/kg | 183 mL/min/kg | 9 nM |  |  |
| N#Cc1cc(C(=O)N2CCCCC2)c(N2CC[C@@H](NC(=O)c3cc(=O)[nH]c4c(F)cccc34)C2)c(C(F)(F)F)c1 [Compound 15] |  | 3.28 nM |  |  | 15.2 ×10⁻⁶ cm/s |  |  |  | 220 mL/min/kg | 76.7 mL/min/kg |
| N#Cc1cc(C(=O)N2CCOCC2)c(N2CC[C@@H](NC(=O)c3c(F)c(=O)[nH]c4ccccc34)C2)c(C(F)(F)F)c1 [Compound 6] | 0.78 nM | 2.51 nM | 1.44 nM | 2.32 nM | 3.22 ×10⁻⁶ cm/s | 81.7 mL/min/kg | < 35 mL/min/kg | 21.9 nM |  |  |
| CO[C@H]1CN(c2c(C(=O)N3CCOCC3)cc(C#N)cc2C(F)(F)F)C[C@@H]1NC(=O)c1cc(=O)[nH]c2c(F)cccc12 [Compound 32] | 0.45 nM | 1.06 nM | 1.17 nM | 1.78 nM | 7.29 ×10⁻⁶ cm/s | < 70 mL/min/kg | 48.3 mL/min/kg | 18.6 nM |  |  |
| O=C(N[C@@H]1CCN(c2c(OC(F)(F)F)cc(Br)cc2C(=O)N2CCOCC2)C1)c1cc(=O)[nH]c2c(F)cccc12 [Compound 42] | 0.45 nM | 1.05 nM | 1.4 nM | 3.58 nM | 14.7 ×10⁻⁶ cm/s | 482 mL/min/kg | 125 mL/min/kg | 8.2 nM |  |  |
| CN1CCN(C(=O)c2cc(C#N)cc(C3CC3)c2N2CC[C@@H](NC(=O)c3cc(=O)[nH]c4c(F)cccc34)C2)CC1 [Compound 41] | 0.45 nM | 0.82 nM | 0.69 nM | 2.16 nM | 0.59 ×10⁻⁶ cm/s | 280 mL/min/kg | 147 mL/min/kg |  |  |  |
| COCCN1CCN(C(=O)c2cc(C#N)cc(C(F)(F)F)c2N2CC[C@@H](NC(=O)c3cc(=O)[nH]c4c(F)cccc34)C2)CC1 [Compound 19] |  | 1.44 nM |  |  | 6.68 ×10⁻⁶ cm/s |  |  |  | 200 mL/min/kg | < 36.7 mL/min/kg |
| O=C(N[C@@H]1CCN(c2c(C(=O)N3CC4COCC4C3)cc(Br)cc2C(F)(F)F)C1)c1cc(=O)[nH]c2c(F)cccc12 (stereo partly shown) [Compound 66] | 0.48 nM | 1.28 nM | 2.06 nM | 5.78 nM | 15 ×10⁻⁶ cm/s | 607 mL/min/kg | 297 mL/min/kg |  |  |  |
| O=C(N[C@H]1CCN(c2c(C(=O)N3CCOCC3)cc(Br)cc2C(F)(F)F)C1)c1cc(=O)[nH]c2c(F)cccc12 [Compound 47] |  |  |  |  | 15.7 ×10⁻⁶ cm/s | 182 mL/min/kg | 46.7 mL/min/kg |  |  |  |
| C[C@@]12COC[C@@H]1CN(C(=O)c1cc(C#N)cc(C(F)(F)F)c1N1CC[C@@H](NC(=O)c3cc(=O)[nH]c4c(F)cccc34)C1)C2 [Compound 16] |  | 1.46 nM |  |  | 7.38 ×10⁻⁶ cm/s |  |  |  | 313 mL/min/kg | 93.3 mL/min/kg |
| O=C(N[C@@H]1CCN(c2c(C(=O)N3CC(F)(F)C3)cc(Br)cc2C(F)(F)F)C1)c1cc(=O)[nH]c2c(F)cccc12 [Compound 70] | 1.02 nM | 1.96 nM | 11.1 nM | 33.7 nM | 13.9 ×10⁻⁶ cm/s | 845 mL/min/kg | 205 mL/min/kg |  |  |  |
| N#Cc1cc(C(=O)N2C[C@H]3COC[C@H]3C2)c(N2CC[C@@H](NC(=O)c3cc(=O)[nH]c4c(F)cccc34)C2)c(C(F)(F)F)c1 [Compound 18] |  | 1.35 nM |  |  | 7.19 ×10⁻⁶ cm/s |  |  | 13.6 nM | 95 mL/min/kg | 38.3 mL/min/kg |
